Structures are written as SMILES.

In the first assay the test system is antibody MDMA-2.1.1. Nature of the assay: Cross-reactivity assay (competitive ELISA) of antibody MDMA-2.1.1. In kind it is binding, mice. The conditions noted are these: ED50 of standard divided by ED50 of drug, times 100. From the text:
(§1) By determining the drug concentration that results in a 50% reduction in binding (ED 50) of a standard, methamphetamine, dividing by the ED50 of each other drug, and then multiplying the result by 100, the percent cross-reactivities shown in Table 2 can be calculated.
Supernatants are subjected to serial dilutions and re-tested in the ELISA screen above. The dilution providing for about a 50% reduction from the maximum OD is chosen for proceeding to cross-reactivity testing. This consists of repeating the preceding assay with the antibody at the chosen dilution and in the presence of varying concentrations of drugs. The charts shown in FIG. 5 and FIG. 6 present the results of such determinations.
`CN[C@@H](C)Cc1ccc2c(c1)OCO2` [d-MDMA]: the “% Cross-reactivity” value turned out to be 100%.

In another assay the test system is antibody NEAMP-1.3. The assay is described as follows: Cross-reactivity assay (competitive ELISA) of antibody NEAMP-1.3. The note with it: ED50 of standard divided by ED50 of drug, times 100. In kind it is binding, mice. How it is done:
as §1
Microplates were coated with 100 μL Methamphetamine-BSA conjugate 28 and separate plates with 100 μL N-ethylamphetamine-BSA 26 (Q=BSA, 26b) at 1 μg/mL in 0.1 M carbonate buffer, pH 9.5 for 1 hour at 37° C. (humidified).
A criterion for selection was binding to the Methamphetamine-BSA conjugate 28. Table 5 presents binding data for a portion of the screening of the Meth-BSA 28 and NEAMP-BSA 26 (Q=BSA, 26b) coated plates.
Supernatants are subjected to serial dilutions and re-tested in the ELISA screen above. The dilution providing for about a 50% reduction from the maximum OD is chosen for proceeding to cross-reactivity testing. This consists of repeating the preceding assay with the antibody at the chosen dilution and in the presence of varying concentrations of drugs.
On to `CNC(C)Cc1ccc2c(c1)OCO2` (stereo not drawn) [MDMA, 3,4-methylenedioxy-N-methylamphetamine], for which the “Percent Cross-Reactivity” value was 114%.

Consider `CN[C@@H](C)[C@H](O)c1ccccc1` [I-ephedrine], for which the “Percent Cross-Reactivity” value is 6.7%.

As to `CN[C@@H](C)[C@@H](O)c1ccccc1` [Pseudoephedrine, pseudoephedrine], the “Percent Cross-Reactivity” value was found to be 2.0%.

Regarding `C[C@H]1[C@H](c2ccccc2)OCCN1C` [Phendimetrazine], the “Percent Cross-Reactivity” value came out at 0.6%.

Take `CN[C@@H](C)Cc1ccccc1` [d-MAMP, d-methamphetamine]: the “Percent Cross-Reactivity” value stood at 100%.

For the compound `C[C@H](N)Cc1ccccc1` [d-AMP, d-amphetamine], the “Percent Cross-Reactivity” value came out at 32.5%.

On to `CCC(Cc1ccc2c(c1)OCO2)NC` (stereo not drawn) [MBDB, 3,4-methylenedioxyphenyl-N-methylbutanamine], for which the “Percent Cross-Reactivity” value is 20%.

Regarding `CCNC(C)Cc1ccc2c(c1)OCO2` (stereo not drawn) [MDEA, 3,4-methylenedioxy-N-ethylamphetamine], the “Percent Cross-Reactivity” value is listed as 507%.
